Reference: ChEMBL document CHEMBL3769312, “2-Sulfonamidopyridine C-region analogs of 2-(3-fluoro-4-methylsulfonamidophenyl)propanamides as potent TRPV1 antagonists” (Bioorg Med Chem, 2016)

Legend:
[1] = molecular target: T1, Transient receptor potential cation channel subfamily V member 1 (Homo sapiens, UniProt Q8NER1); test: Displacement of [3H]RTX from human TRPV1 expressed in CHO cells after 60 mins by scintillation counting analysis; type: cell-based
[2] = molecular target: T1, Transient receptor potential cation channel subfamily V member 1; test: Antagonist activity at human TRPV1 expressed in CHO cells assessed as inhibition of capsaicin-induced (45)Ca2+ uptake after 5 mins by liquid scintillation counting analysis; type: cell-based
[3] = molecular target: T1, Transient receptor potential cation channel subfamily V member 1; test: Agonist activity at human TRPV1 expressed in CHO cells assessed as (45)Ca2+ uptake after 5 mins by liquid scintillation counting analysis; type: cell-based
Mus musculus = test: Analgesic activity in ip dosed formalin-induced mouse pain model after 20 to 30 mins; type: functional

T1 sequence (Q8NER1 whole entry): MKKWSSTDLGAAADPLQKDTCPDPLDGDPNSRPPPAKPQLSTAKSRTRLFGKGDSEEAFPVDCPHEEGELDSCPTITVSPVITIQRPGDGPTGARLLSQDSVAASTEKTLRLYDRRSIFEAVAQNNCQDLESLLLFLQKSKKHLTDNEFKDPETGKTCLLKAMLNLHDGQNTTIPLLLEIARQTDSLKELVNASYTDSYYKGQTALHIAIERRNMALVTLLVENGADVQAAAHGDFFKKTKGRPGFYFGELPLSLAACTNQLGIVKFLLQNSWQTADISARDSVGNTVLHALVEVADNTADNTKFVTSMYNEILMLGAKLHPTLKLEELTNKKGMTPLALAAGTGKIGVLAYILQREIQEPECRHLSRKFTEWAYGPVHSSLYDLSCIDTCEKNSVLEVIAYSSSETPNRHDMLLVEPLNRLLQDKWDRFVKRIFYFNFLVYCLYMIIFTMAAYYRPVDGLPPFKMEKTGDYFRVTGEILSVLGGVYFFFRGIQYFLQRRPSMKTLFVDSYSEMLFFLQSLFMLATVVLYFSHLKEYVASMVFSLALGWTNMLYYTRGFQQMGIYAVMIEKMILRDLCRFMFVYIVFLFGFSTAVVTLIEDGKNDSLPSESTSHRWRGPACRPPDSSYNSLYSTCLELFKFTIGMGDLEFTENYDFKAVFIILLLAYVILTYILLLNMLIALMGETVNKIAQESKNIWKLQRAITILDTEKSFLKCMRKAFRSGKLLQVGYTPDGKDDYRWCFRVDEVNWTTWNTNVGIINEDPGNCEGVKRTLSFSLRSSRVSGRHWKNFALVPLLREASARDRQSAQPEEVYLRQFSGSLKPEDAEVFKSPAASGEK

SMILES	Ki ([1]; read-out: Ki)	Ki ([2]; read-out: Ki)	EC50 [3]	Ki ([1]; cho)	Ki ([2]; cho)	Activity (Mus musculus)	ED50 (Mus musculus)
CC(C(=O)NCc1ccc(C(F)(F)F)nc1N(c1ccccc1)S(=O)(=O)c1ccccc1)c1ccc(NS(C)(=O)=O)c(F)c1 (configuration not stated)	18.3 nM	6 nM	Not Active				
CC1CCN(c2nc(C(F)(F)F)ccc2CNC(=O)[C@@H](C)c2ccc(NS(C)(=O)=O)c(F)c2)CC1	2.95 nM	1.26 nM	Not Active				
CC(C(=O)NCc1ccc(C(F)(F)F)nc1N(Cc1ccccc1)S(=O)(=O)C(C)C)c1ccc(NS(C)(=O)=O)c(F)c1 (configuration not stated)	18.1 nM	6.19 nM	Not Active				
CC(C(=O)NCc1ccc(C(F)(F)F)nc1N(Cc1ccccc1)S(C)(=O)=O)c1ccc(NS(C)(=O)=O)c(F)c1 (configuration not stated)	101 nM	25 nM	Not Active				
CCCS(=O)(=O)N(Cc1ccccc1)c1nc(C(F)(F)F)ccc1CNC(=O)C(C)c1ccc(NS(C)(=O)=O)c(F)c1 (configuration not stated)			Not Active				
CC(C(=O)NCc1ccc(C(F)(F)F)nc1N(C)S(=O)(=O)c1ccccc1)c1ccc(NS(C)(=O)=O)c(F)c1 (configuration not stated)	698 nM	100 nM	Not Active				
CC1CCN(c2nc(C(F)(F)F)ccc2CNC(=O)C(C)c2ccc(NS(C)(=O)=O)c(F)c2)CC1 (configuration not stated)	7.9 nM	2.22 nM	Not Active				
CCS(=O)(=O)N(Cc1ccccc1)c1nc(C(F)(F)F)ccc1CNC(=O)C(C)c1ccc(NS(C)(=O)=O)c(F)c1 (configuration not stated)	38 nM	11.9 nM	Not Active				
CC(C(=O)NCc1ccc(C(F)(F)F)nc1N(C(C)C)S(=O)(=O)c1ccccc1)c1ccc(NS(C)(=O)=O)c(F)c1 (configuration not stated)	410 nM	27.6 nM	Not Active				
CC(C(=O)NCc1ccc(C(F)(F)F)nc1NS(=O)(=O)c1ccccc1)c1ccc(NS(C)(=O)=O)c(F)c1 (configuration not stated)			Not Active	Active	Active		

Continued by falling Ki ([1]; read-out: Ki), values first:

Ki ([1]; read-out: Ki)	Ki ([2]; read-out: Ki)	EC50 [3]	Ki ([1]; cho)	Ki ([2]; cho)	SMILES	Activity (Mus musculus)	ED50 (Mus musculus)
7.5 nM	2.14 nM	Not Active			COc1ccc(CN(c2nc(C(F)(F)F)ccc2CNC(=O)C(C)c2ccc(NS(C)(=O)=O)c(F)c2)S(=O)(=O)c2ccccc2)cc1 (configuration not stated)		
7.3 nM	11.8 nM	Not Active			CC(C(=O)NCc1ccc(C(F)(F)F)nc1N(c1ccc(F)cc1)S(=O)(=O)c1ccccc1)c1ccc(NS(C)(=O)=O)c(F)c1 (configuration not stated)		
3.28 nM	7.08 nM	Not Active			Cc1ccc(CN(c2nc(C(F)(F)F)ccc2CNC(=O)C(C)c2ccc(NS(C)(=O)=O)c(F)c2)S(=O)(=O)c2ccc(F)cc2)cc1 (configuration not stated)		
2.32 nM	7.37 nM	Not Active			CC(C(=O)NCc1ccc(C(F)(F)F)nc1N(Cc1ccc(F)cc1)S(=O)(=O)c1ccccc1)c1ccc(NS(C)(=O)=O)c(F)c1 (configuration not stated)		
2.3 nM	10 nM	Not Active			CC(C(=O)NCc1ccc(C(F)(F)F)nc1N(CC1CCCCC1)S(=O)(=O)c1ccccc1)c1ccc(NS(C)(=O)=O)c(F)c1 (configuration not stated)		
1.99 nM	5.9 nM	Not Active			CC(C(=O)NCc1ccc(C(F)(F)F)nc1N(Cc1ccccc1)S(=O)(=O)c1ccccc1)c1ccc(NS(C)(=O)=O)c(F)c1 (configuration not stated)	Dose-dependent effect	15.6 mg/kg
1.85 nM	5.54 nM	Not Active			Cc1ccc(CN(c2nc(C(F)(F)F)ccc2CNC(=O)C(C)c2ccc(NS(C)(=O)=O)c(F)c2)S(=O)(=O)c2ccccc2)cc1 (configuration not stated)		
1.65 nM	7.9 nM	Not Active			COc1ccc(CN(c2nc(C(F)(F)F)ccc2CNC(=O)C(C)c2ccc(NS(C)(=O)=O)c(F)c2)S(=O)(=O)c2ccc(F)cc2)cc1 (configuration not stated)		
1.56 nM	3.87 nM	Not Active			CC(C(=O)NCc1ccc(C(F)(F)F)nc1N(Cc1ccccc1)S(=O)(=O)c1ccc(F)cc1)c1ccc(NS(C)(=O)=O)c(F)c1 (configuration not stated)		
1.29 nM	5.77 nM	Not Active			CC(C(=O)NCc1ccc(C(F)(F)F)nc1N(Cc1ccc(Cl)cc1)S(=O)(=O)c1ccccc1)c1ccc(NS(C)(=O)=O)c(F)c1 (configuration not stated)		
0.9 nM	6 nM	Not Active			CC(C(=O)NCc1ccc(C(F)(F)F)nc1N(Cc1ccc(Cl)cc1)S(=O)(=O)c1ccc(F)cc1)c1ccc(NS(C)(=O)=O)c(F)c1 (configuration not stated)		
0.76 nM	8.5 nM	Not Active			CC(C(=O)NCc1ccc(C(F)(F)F)nc1N(Cc1ccccc1)S(=O)(=O)c1ccc(Cl)cc1)c1ccc(NS(C)(=O)=O)c(F)c1 (configuration not stated)		
0.71 nM	2.99 nM	Not Active			CC(C(=O)NCc1ccc(C(F)(F)F)nc1N(Cc1ccc(F)cc1)S(=O)(=O)c1ccc(F)cc1)c1ccc(NS(C)(=O)=O)c(F)c1 (configuration not stated)		
0.54 nM	1.81 nM	Not Active			C[C@H](C(=O)NCc1ccc(C(F)(F)F)nc1N(Cc1ccccc1)S(=O)(=O)c1ccccc1)c1ccc(NS(C)(=O)=O)c(F)c1		
